Patent publication EP4603105A1, “PHARMACEUTICAL COMPOSITION CONTAINING CYCLIC COMPOUND HAVING SELECTIVE KRAS INHIBITORY EFFECT AGAINST HRAS AND NRAS” (CHUGAI SEIYAKU KABUSHIKI KAISHA, priority 2022, dated 2024)
pIC50: −log10 of the molar value. Like-named read-outs stand apart in the source and are kept apart here. *1 amine or outer side, *2 acyl side, *3 side chain or, on linkers, in order; H or OH if unused. Where a SMILES comes first, the peptide text is derived from it. Bridges are numbered along the chain shown (N, C = ends). [ ]: non-standard residue; d: D form. The star is where a group is joined. hPhe(3,5-F2-4-CF3) = N[C@@H](CCc1cc(F)c(C(F)(F)F)c(F)c1)C(=O)O; hPhe(3-Cl-4-CF3) = N[C@@H](CCc1ccc(C(F)(F)F)c(Cl)c1)C(=O)O; NPrPhe(4-CF3) = CCCN[C@@H](Cc1ccc(C(F)(F)F)cc1)C(=O)O; X40 = Cc1ccc(C[C@@H](C(=O)[*:2])N(CC(C)C)[*:1])cc1; X46 = C=CCCN([C@@H](Cc1ccc(C)cc1)C(=O)[*:2])[*:1]; hPhe(3,4-Cl2) = N[C@@H](CCc1ccc(Cl)c(Cl)c1)C(=O)O; NMeGly(cPent) = CN[C@H](C(=O)O)C1CCCC1; αMeCha = C[C@](N)(CC1CCCCC1)C(=O)O; Hyp = O=C(O)[C@@H]1C[C@@H](O)CN1; NMeD = CN[C@@H](CC(=O)O)C(=O)O; NMeL = CN[C@@H](CC(C)C)C(=O)O; Morpholide = C1CN(*)CCO1; NMeA = CN[C@@H](C)C(=O)O; Ac5c = NC1(C(=O)O)CCCC1; Aze = O=C(O)[C@@H]1CCN1; Ac4c = NC1(C(=O)O)CCC1; NEtG = CCNCC(=O)O; Sar = CNCC(=O)O

Tests used:
HRAS wild-type protein = HRAS wild-type protein (Homo sapiens, UniProt P01112); assay: Binding to HRAS by surface plasmon resonance (SPR), KD and KD ratio to KRAS
Method in brief: (§1)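 Single-cycle kinetics on GDP-loaded biotin-Avi RAS captured to ~100–300 RU; 75 s ascending injections, 100 µL/min, 30°C. HBS pH 7.4 + 10 mM MgCl2/10 µM GDP/4% DMSO. 1:1 fit, KD.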

[1] = target: GDP-bound NRAS wild-type protein (Homo sapiens, UniProt P01111); assay: Binding to NRAS by surface plasmon resonance (SPR), KD and KD ratio to KRAS
Method in brief: as §1

[2] = tested on: human lung cancer strain NCI-H441; format: cell-based
Method in brief: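 Proliferation was scored by […] measured after the reagent was added to cultures kept at 37°C in 5% carbon dioxide.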

[3] = ratio of KD for HRAS wild-type protein to KD for KRAS
[4] = ratio of KD for GDP-bound NRAS wild-type protein to KD for KRAS
[5] = ratio of the KD value with respect to HRAS wild-type protein to the KD value with respect to KRAS
[6] = ratio of the KD value with respect to GDP-bound NRAS wild-type protein to the KD value with respect to KRAS

Chain of GDP-bound NRAS wild-type protein (P01111 whole entry): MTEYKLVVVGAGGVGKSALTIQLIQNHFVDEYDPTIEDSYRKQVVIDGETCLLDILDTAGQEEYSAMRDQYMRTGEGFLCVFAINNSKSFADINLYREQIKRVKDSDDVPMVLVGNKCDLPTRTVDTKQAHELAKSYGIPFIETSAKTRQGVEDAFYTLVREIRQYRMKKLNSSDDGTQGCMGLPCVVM
Chain of HRAS wild-type protein (P01112 whole entry): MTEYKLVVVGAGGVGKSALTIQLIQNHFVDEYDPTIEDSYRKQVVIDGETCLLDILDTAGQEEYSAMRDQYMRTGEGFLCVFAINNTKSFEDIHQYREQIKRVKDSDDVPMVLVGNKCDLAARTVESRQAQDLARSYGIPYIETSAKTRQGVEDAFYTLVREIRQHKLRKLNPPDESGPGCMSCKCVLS

Compound | HRAS /KRAS (HRAS wild-type protein; [3]) | NRAS /KRAS [1, 4] | pIC50 [2] | also measured
C=CCCN1C(=O)[C@@H]2CCN2C(=O)[C@H](C)N(C)C(=O)[C@H]([C@@H](C)CC)NC(=O)[C@H](CC(C)C)N(C)C(=O)C[C@@H](C(=O)N2CCOCC2)N(C)C(=O)[C@H](C2CCCC2)N(C)C(=O)C2(CCCC2)NC(=O)[C@@H]2CCCN2C(=O)[C@H](CCc2ccc(C(F)(F)F)c(Cl)c2)NC(=O)CN(C)C(=O)[C@@H]1Cc1ccc(C)cc1 [PP0089] ([NMeL]I[NMeA][Aze][X46][Sar][hPhe(3-Cl-4-CF3)]P[Ac5c][NMeGly(cPent)][NMeD]-Morpholide; lactam N-11) | B (a compound having 3 or more and less than 10 is denoted as B) | C (A compound having a KD ratio of 0.1 or more and less than 3 is denoted as C) | 8.26 | 
CC[C@H](C)[C@@H]1NC(=O)[C@@H]2CCCCCCc3ccc(cc3)C[C@@H](C(=O)N(C)CC(=O)N[C@@H](CCc3ccc(C(F)(F)F)c(OC)c3)C(=O)N3CC4(CC4)C[C@H]3C(=O)NC3(CC(C)(C)C3)C(=O)N(C)[C@@H](C3CCCC3)C(=O)N(C)[C@H](C(=O)N(C)C)CC(=O)N2C)N2CC/C=C\C[C@@H](C2=O)N(C)C(=O)CN(C)C1=O [PP3069] | B (a compound having 3 or more and less than 10 is denoted as B) | A (a compound having 10 or more and less than 20 is denoted as A) | 8.68 | 
CCC[C@H]1C(=O)N[C@@H]([C@@H](C)CC)C(=O)N(C)CC(=O)N(C)[C@H]2C/C=C\CCN(C2=O)[C@@H](Cc2ccc(C)cc2)C(=O)N(C)CC(=O)N[C@@H](CCc2ccc3c(C)cn(C)c3c2)C(=O)N2C[C@H](OCC)C[C@H]2C(=O)NC2(CC(C)(C)C2)C(=O)N(C)[C@@H](C2CCCC2)C(=O)N(C)[C@H](C(=O)N(C)C)CC(=O)N1C [PP2899] | B (a compound having 3 or more and less than 10 is denoted as B) | A (a compound having 10 or more and less than 20 is denoted as A) | 7.73 | 
CCCN1C(=O)[C@@H]2CCN2C(=O)CN(C)C(=O)[C@H]([C@@H](C)CC)NC(=O)[C@H](CC(C)C)N(C)C(=O)C[C@@H](C(=O)N2CCOCC2)N(C)C(=O)[C@H](C2CCCC2)N(C)C(=O)[C@](C)(CC2CCCCC2)NC(=O)[C@@H]2CCCN2C(=O)[C@H](CCc2cc(F)c(C(F)(F)F)c(F)c2)NC(=O)CN(C)C(=O)[C@@H]1Cc1ccc(C(F)(F)F)cc1 [PP0796] ([NMeL]I[Sar][Aze][NPrPhe(4-CF3)][Sar][hPhe(3,5-F2-4-CF3)]P[αMeCha][NMeGly(cPent)][NMeD]-Morpholide; lactam N-11) | B (a compound having 3 or more and less than 10 is denoted as B) | C (A compound having a KD ratio of 0.1 or more and less than 3 is denoted as C) | 6.36 | 
CCCN1C(=O)CN(CC)C(=O)CNC(=O)[C@H]([C@@H](C)CC)NC(=O)[C@H](CC(C)C)N(C)C(=O)C[C@@H](C(=O)N2CCOCC2)N(C)C(=O)[C@H](C2CCCC2)N(C)C(=O)C2(CCCC2)NC(=O)[C@@H]2CCCN2C(=O)[C@H](CCc2ccc(C(F)(F)F)c(Cl)c2)NC(=O)CN(C)C(=O)[C@@H]1Cc1ccc(C(F)(F)F)cc1 [PP1968] ([NMeL]IG[NEtG][NPrPhe(4-CF3)][Sar][hPhe(3-Cl-4-CF3)]P[Ac5c][NMeGly(cPent)][NMeD]-Morpholide; lactam N-11) |  |  | 7.87 | HRAS /KRAS (HRAS wild-type protein; [5]): C (A compound having a KD ratio of 0.1 or more and less than 3 is denoted as C); NRAS /KRAS [1, 6]: C (A compound having a KD ratio of 0.1 or more and less than 3 is denoted as C)
CCOC1CC2C(=O)NC3(CCC3)C(=O)N(C)C(C(C)CC)C(=O)N(C)[C@H](C(=O)N3CCOCC3)CC(=O)N(C)[C@@H](CC(C)C)C(=O)N[C@@H]([C@@H](C)CC)C(=O)N(C)CC(=O)N(C)[C@H]3CCCCN(C3=O)[C@@H](Cc3ccc(C(F)(F)F)cc3)C(=O)N(C)CC(=O)N[C@@H](CCc3cc(F)c(C(F)(F)F)c(F)c3)C(=O)N2C1 (stereo partly drawn) [PP0812] | B (a compound having 3 or more and less than 10 is denoted as B) | B (a compound having 3 or more and less than 10 is denoted as B) | 7.75 | 
CCO[C@@H]1C[C@H]2C(=O)NC3(CC(F)(F)C3)C(=O)N(C)[C@@H](C3CCCC3)C(=O)N(C)C(C3CCCCC3)CC(=O)N(C)[C@@H](COC)C(=O)N[C@@H]([C@@H](C)CC)C(=O)N(C)CC(=O)N(C)[C@H]3C/C=C\CCN(C3=O)[C@@H](Cc3ccc(C(F)(F)F)cc3)C(=O)N(C)CC(=O)N[C@@H](CCc3cc(F)c(C(F)(F)F)c(F)c3)C(=O)N2C1 (stereo partly drawn) [PP1586] |  |  | 7.07 | HRAS /KRAS (HRAS wild-type protein; ratio of KD value for HRAS wild-type protein to KD value for KRAS (SPR)): A (a compound having 10 or more and less than 20 is denoted as A); NRAS /KRAS ([1]; ratio of KD value for GDP-bound NRAS wild-type protein to KD value for KRAS (SPR)): A (a compound having 10 or more and less than 20 is denoted as A)
CCCN1C(=O)[C@@H]2CCN2C(=O)CN(C)C(=O)[C@H]([C@@H](C)CC)NC(=O)[C@H](CC(C)C)N(C)C(=O)C[C@@H](C(=O)N(C)C)N(C)C(=O)[C@H](C2CCCC2)N(C)C(=O)C2(CCC2)NC(=O)[C@@H]2C[C@@H](OCC)CN2C(=O)[C@H](CCc2ccc(C(F)(F)F)c(Cl)c2)NC(=O)CN(C)C(=O)[C@@H]1Cc1ccc(C(F)(F)F)cc1 [PP0445] ([NMeL]I[Sar][Aze][NPrPhe(4-CF3)][Sar][hPhe(3-Cl-4-CF3)][Hyp](Et)[Ac4c][NMeGly(cPent)][NMeD]-NMe2; lactam N-11) |  |  | 8.77 | HRAS /KRAS (HRAS wild-type protein; [5]): C (A compound having a KD ratio of 0.1 or more and less than 3 is denoted as C); NRAS /KRAS [1, 6]: C (A compound having a KD ratio of 0.1 or more and less than 3 is denoted as C)
CCC[C@H]1C(=O)N[C@@H]([C@@H](C)CC)C(=O)N(C2CC2)CC(=O)N(C)[C@H]2C/C=C\CCN(C2=O)[C@@H](Cc2ccc(C)cc2)C(=O)N(C)CC(=O)N[C@@H](CCc2ccc(C3CC3)c(F)c2)C(=O)N2C[C@H](OCC)C[C@H]2C(=O)NC2(CC(C)(C)C2)C(=O)N(C)[C@@H](C2CCCC2)C(=O)N(C)[C@H](C(=O)N(C)C)CC(=O)N1C [PP2884] | A (a compound having 10 or more and less than 20 is denoted as A) | A (a compound having 10 or more and less than 20 is denoted as A) |  | pIC50 ([2]; NCI-H441 cells, 4 days, CellTiter-Glo, read-out: NCl-H441 IC50): 7.44
CC[C@H](C)[C@@H]1NC(=O)[C@H](CC(C)C)N(C)C(=O)C[C@@H](C(=O)N2CCOCC2)N(C)C(=O)[C@H](C2CCCC2)N(C)C(=O)C2(CCC2)NC(=O)[C@@H]2[C@@H](OC)CCN2C(=O)[C@H](CCc2cc(F)c(C(F)(F)F)c(F)c2)NC(=O)CN(C)C(=O)[C@H](Cc2ccc(C(F)(F)F)cc2)N2CCCCC[C@@H](C2=O)N(C)C(=O)CN(C)C1=O [PP1067] | B (a compound having 3 or more and less than 10 is denoted as B) | B (a compound having 3 or more and less than 10 is denoted as B) | 6.52 | 
CCCN1C(=O)CN(C)C(=O)CN(C)C(=O)[C@H]([C@@H](C)CC)NC(=O)[C@H](CC(C)C)N(C)C(=O)C[C@@H](C(=O)N2CCOCC2)N(C)C(=O)[C@H](C2CCCC2)N(C)C(=O)C2(CCCC2)NC(=O)[C@@H]2CCCN2C(=O)[C@H](CCc2ccc(Cl)c(Cl)c2)NC(=O)CN(C)C(=O)[C@@H]1Cc1ccc(C(F)(F)F)cc1 [PP0232] ([NMeL]I[Sar][Sar][NPrPhe(4-CF3)][Sar][hPhe(3,4-Cl2)]P[Ac5c][NMeGly(cPent)][NMeD]-Morpholide; lactam N-11) | B (a compound having 3 or more and less than 10 is denoted as B) | B (a compound having 3 or more and less than 10 is denoted as B) | 8.33 | 
CCCN(C)C(=O)[C@@H]1CC(=O)N(C)[C@@H](CC2CC2)C(=O)N[C@@H]([C@@H](C)CC)C(=O)N(C)CC(=O)N(C)[C@H]2C/C=C\CCN(C2=O)[C@@H](Cc2ccc(C(F)(F)F)cc2)C(=O)N(C)CC(=O)N[C@@H](CCc2cc(F)c(C(F)(F)F)c(F)c2)C(=O)N2C[C@H](OCC)C[C@H]2C(=O)NC2(CCC2)C(=O)N(C)[C@@H](C2CCCC2)C(=O)N1C [PP1388] |  |  | 8.06 | HRAS /KRAS (HRAS wild-type protein; ratio of KD with respect to HRAS wild-type protein to KD with respect to KRAS): B (a compound having 3 or more and less than 10 is denoted as B); NRAS /KRAS ([1]; ratio of KD with respect to GDP-bound NRAS wild-type protein to KD with respect to KRAS): A (a compound having 10 or more and less than 20 is denoted as A)
CC[C@H](C)[C@@H]1NC(=O)[C@H](CC(C)C)N(C)C(=O)C[C@@H](C(=O)N2CCOCC2)N(C)C(=O)[C@H](C2CCCC2)N(C)C(=O)C2(CCC2)NC(=O)[C@@H]2C[C@@H](OC)CN2C(=O)[C@H](CCc2cc(F)c(C(F)(F)F)c(F)c2)NC(=O)CN(C)C(=O)[C@H](Cc2ccc(C(F)(F)F)cc2)N2CCCCC[C@@H](C2=O)N(C)C(=O)CN(C)C1=O [PP1016] | B (a compound having 3 or more and less than 10 is denoted as B) | A (a compound having 10 or more and less than 20 is denoted as A) | 7.21 | 
CC[C@H](C)[C@@H]1NC(=O)[C@H](CC(C)C)N(C)C(=O)C[C@@H](C(=O)N2CCOCC2)N(C)C(=O)[C@H](C2CCCC2)N(C)C(=O)C2(CCCC2)NC(=O)[C@@H]2CCCN2C(=O)[C@H](CCc2ccc(C(F)(F)F)c(Cl)c2)NC(=O)CN(C)C(=O)[C@H](Cc2ccc(C)cc2)N(CC(C)C)C(=O)CN(C)C(=O)CN(C)C1=O [PP0063] ([NMeL]I[Sar][Sar][X40][Sar][hPhe(3-Cl-4-CF3)]P[Ac5c][NMeGly(cPent)][NMeD]-Morpholide; lactam N-11) | C (A compound having a KD ratio of 0.1 or more and less than 3 is denoted as C) | C (A compound having a KD ratio of 0.1 or more and less than 3 is denoted as C) | 7.41 | 
